Assay type in all cases: functional
Holding throughout (settings): read-out: DIZ

In one assay the test system is Streptococcus pneumoniae. Nature of the assay: Antibacterial activity against Streptococcus pneumoniae ATCC49619 at 5 ug/ml.
The next assay deals with Bacillus subtilis. Description: Antibacterial activity against Bacillis subtilis BS-GA28 at 5 ug/ml.
The subject of a further assay is Pseudomonas aeruginosa. Nature of the assay: Antibacterial activity against Pseudomonas aeruginosa MTCC441 at 5 ug/ml.
A further assay relates to Escherichia coli. Nature of the assay: Antibacterial activity against Escherichia coli MTCC442 at 5 ug/ml.
The test system of a further assay is Aspergillus fumigatus. Description: Antifungal activity against Aspergillus fumigatus HIC6094 at 5 ug/ml.
Assay [1] concerns Syncephalastrum racemosum. Description: Antifungal activity against Syncephalastrum racemosum RCMB05922 at 5 ug/ml.
The next assay has as its system Geotrichum candidum. Description: Antifungal activity against Geotrichum candidum RCMB05097 at 5 ug/ml.
The subject of a further assay is Candida albicans. Nature of the assay: Antifungal activity against Candida albicans MTCC227 at 5 ug/ml.

Turning to `CC1(C)S[C@@H]2[C@H](NC(=O)[C@H](N)c3ccccc3)C(=O)N2[C@H]1C(=O)O` [AMPICILLIN], the values for the zone of inhibition at 5 µg/mL in the assay with Streptococcus pneumoniae and with Bacillus subtilis were 23.8 mm and 32.4 mm, respectively.

Turning to `CCOC(=O)c1c(Nc2ccccc2)sc(C(=O)/C=C/c2ccc(O)cc2)c1-c1ccccc1`, the zone of inhibition at 5 µg/mL in the assay on Streptococcus pneumoniae came to 26.7 mm; with Bacillus subtilis, 21.4 mm; in the assay on Pseudomonas aeruginosa, 18.7 mm; in the assay with Escherichia coli it was 19.5 mm; in the assay on Aspergillus fumigatus, 15.7 mm; in assay [1], 11.2 mm. Further, the zone of inhibition at 5 µg/mL is 17.3 mm in the assay with Geotrichum candidum and 13.3 mm with Candida albicans.

Consider `CCOC(=O)c1c(Nc2ccccc2)sc(-c2ccn(-c3ccccc3)n2)c1-c1ccccc1`, for which the zone of inhibition at 5 µg/mL in the assay on Streptococcus pneumoniae was 12.3 mm; in the assay with Bacillus subtilis, 12.7 mm; with Pseudomonas aeruginosa, 11.6 mm; in the assay on Escherichia coli, 10.9 mm; with Aspergillus fumigatus, 15.9 mm; in assay [1] it was 18.9 mm. For the same compound, the zone of inhibition at 5 µg/mL with Geotrichum candidum is 19.1 mm; with Candida albicans, 15.8 mm.

Consider `CCOC(=O)c1c(Nc2ccccc2)sc(C(=O)/C=C/c2ccc(Cl)cc2)c1-c1ccccc1`, for which the zone of inhibition at 5 µg/mL amounted to 19.5 mm in the assay with Streptococcus pneumoniae; 29.8 mm with Bacillus subtilis; 12.3 mm in the assay on Pseudomonas aeruginosa; 17.6 mm in the assay with Escherichia coli; 22.3 mm in the assay with Aspergillus fumigatus; 16.5 mm in assay [1]. The zone of inhibition at 5 µg/mL in the assay on Geotrichum candidum was 25.8 mm; with Candida albicans, 12.3 mm.

With `CCOC(=O)c1c(Nc2ccccc2)sc(C(=O)/C=C/c2ccc(OC)cc2)c1-c1ccccc1`, the zone of inhibition at 5 µg/mL came to 18.9 mm in the assay on Streptococcus pneumoniae; 17.9 mm with Bacillus subtilis; 11.4 mm in the assay with Pseudomonas aeruginosa; 10.2 mm in the assay with Escherichia coli; 23.4 mm with Aspergillus fumigatus; 16.1 mm in assay [1]. Moreover, the zone of inhibition at 5 µg/mL worked out at 10.8 mm with Geotrichum candidum and 11.9 mm in the assay on Candida albicans.

Turning to `CCOC(=O)c1c(Nc2ccccc2)sc(-c2ccn(-c3ccc(Cl)cc3)n2)c1-c1ccccc1`, the zone of inhibition at 5 µg/mL with Streptococcus pneumoniae worked out at 18.2 mm; in the assay with Bacillus subtilis it was 18.9 mm; in the assay on Pseudomonas aeruginosa, 10.8 mm; with Escherichia coli, 11.1 mm; in the assay on Aspergillus fumigatus it was 26.3 mm; in assay [1], 20.9 mm. Moreover, the values for the zone of inhibition at 5 µg/mL with Geotrichum candidum and with Candida albicans were 12.6 mm and 11.2 mm, respectively.

`CCOC(=O)c1c(Nc2ccccc2)sc(C(=O)/C=C/c2ccc([N+](=O)[O-])cc2[N+](=O)[O-])c1-c1ccccc1`: the zone of inhibition at 5 µg/mL in the assay on Streptococcus pneumoniae stood at 16.5 mm; in the assay on Bacillus subtilis, 18.9 mm; in the assay on Pseudomonas aeruginosa, 11.3 mm; in the assay with Escherichia coli it was 9.9 mm; with Aspergillus fumigatus, 18.9 mm; in assay [1], 19.6 mm. Moreover, the figures for the zone of inhibition at 5 µg/mL with Geotrichum candidum and in the assay with Candida albicans were 14.8 mm and 13.4 mm, respectively.

`C[C@@H]1[C@H](O)[C@@H](C)/C=C/C=C/C=C/C=C/C=C/C=C/C=C/[C@H](O[C@@H]2O[C@H](C)[C@@H](O)[C@H](N)[C@@H]2O)C[C@@H]2O[C@](O)(C[C@@H](O)C[C@@H](O)[C@H](O)CC[C@@H](O)C[C@@H](O)CC(=O)O[C@H]1C)C[C@H](O)[C@H]2C(=O)O` [AMPHOTERICIN B]: the zone of inhibition at 5 µg/mL in the assay on Aspergillus fumigatus was found to be 23.7 mm; in assay [1], 19.7 mm; in the assay with Geotrichum candidum, 28.7 mm; in the assay on Candida albicans, 25.4 mm.

Turning to `CCOC(=O)c1c(Nc2ccccc2)sc(C(=O)/C=C/c2cccc(N(C)C)c2)c1-c1ccccc1`, the zone of inhibition at 5 µg/mL worked out at 16.3 mm with Streptococcus pneumoniae; 19.6 mm in the assay with Bacillus subtilis; 12.5 mm in the assay on Pseudomonas aeruginosa; 14.8 mm in the assay with Escherichia coli; 24.3 mm in the assay with Aspergillus fumigatus; 24.5 mm in assay [1]. For the same compound, the zone of inhibition at 5 µg/mL is 25.8 mm in the assay on Geotrichum candidum and 14.3 mm in the assay with Candida albicans.

Regarding `CCOC(=O)c1c(Nc2ccccc2)sc(C(=O)/C=C\Nc2ccc([N+](=O)[O-])cc2)c1-c1ccccc1`, the zone of inhibition at 5 µg/mL came out at 19.5 mm in the assay on Streptococcus pneumoniae; 29.8 mm in the assay with Bacillus subtilis; 12.3 mm in the assay on Pseudomonas aeruginosa; 18.8 mm in the assay with Escherichia coli; 12.6 mm with Aspergillus fumigatus; 16.5 mm in assay [1]. For the same compound, the zone of inhibition at 5 µg/mL in the assay on Geotrichum candidum is 25.8 mm; in the assay on Candida albicans, 10.9 mm.

On to `CCOC(=O)c1c(Nc2ccccc2)sc(C(=O)/C=C/c2ccc(Cl)c(Cl)c2)c1-c1ccccc1`, for which the zone of inhibition at 5 µg/mL stood at 11.3 mm in the assay with Streptococcus pneumoniae; 10.7 mm in the assay on Bacillus subtilis; 9.7 mm in the assay with Pseudomonas aeruginosa; 8.9 mm in the assay on Escherichia coli; 17.7 mm with Aspergillus fumigatus; 15.4 mm in assay [1]. The values for the zone of inhibition at 5 µg/mL with Geotrichum candidum and in the assay with Candida albicans were 12.9 mm and 13.2 mm, respectively.

For the compound `CCOC(=O)c1c(Nc2ccccc2)sc(-c2ccnc(N)n2)c1-c1ccccc1`, the zone of inhibition at 5 µg/mL worked out at 16.3 mm with Streptococcus pneumoniae; 19.1 mm in the assay with Bacillus subtilis; 11.4 mm in the assay with Pseudomonas aeruginosa; 10.7 mm in the assay with Escherichia coli; 18.2 mm in the assay with Aspergillus fumigatus; 13.7 mm in assay [1]. In addition, the zone of inhibition at 5 µg/mL is 19.1 mm with Geotrichum candidum and 18.2 mm in the assay with Candida albicans.

For `CCOC(=O)c1ccc(-c2sc(Nc3ccccc3)c(C(=O)OCC)c2-c2ccccc2)nc1C`, the zone of inhibition at 5 µg/mL came out at 18.2 mm with Streptococcus pneumoniae; 18.9 mm in the assay with Bacillus subtilis; 10.8 mm with Pseudomonas aeruginosa; 11.1 mm in the assay on Escherichia coli; 26.3 mm with Aspergillus fumigatus; 20.9 mm in assay [1]. The results for the zone of inhibition at 5 µg/mL in the assay with Geotrichum candidum and in the assay on Candida albicans were 12.6 mm and 11.2 mm, respectively.

Regarding `CCOC(=O)c1c(Nc2ccccc2)sc(C(=O)c2cn(-c3ccc(Cl)cc3)nc2C(C)=O)c1-c1ccccc1`, the zone of inhibition at 5 µg/mL in the assay on Streptococcus pneumoniae was determined as 14.6 mm; in the assay on Bacillus subtilis, 14.3 mm; in the assay on Pseudomonas aeruginosa, 10.2 mm; with Escherichia coli it was 8.8 mm; with Aspergillus fumigatus it was 16.3 mm; in assay [1] it was 14.8 mm. For the same compound, the zone of inhibition at 5 µg/mL with Geotrichum candidum was 15.3 mm; in the assay on Candida albicans, 14.3 mm.

With `CCOC(=O)c1c(Nc2ccccc2)sc(C(=O)c2cn(-c3ccc(C)cc3)nc2C(C)=O)c1-c1ccccc1`, the zone of inhibition at 5 µg/mL in the assay with Streptococcus pneumoniae was determined as 12.3 mm; with Bacillus subtilis it was 12.7 mm; in the assay with Pseudomonas aeruginosa, 9.8 mm; with Escherichia coli it was 11.3 mm; with Aspergillus fumigatus, 15.7 mm; in assay [1], 16.6 mm. Besides, the zone of inhibition at 5 µg/mL in the assay on Geotrichum candidum is 12.6 mm; in the assay with Candida albicans it was 12.7 mm.

For `CCOC(=O)c1c(Nc2ccccc2)sc(-c2ccnc(O)n2)c1-c1ccccc1`, the zone of inhibition at 5 µg/mL with Streptococcus pneumoniae came to 16.3 mm; in the assay with Bacillus subtilis, 19.1 mm; in the assay on Pseudomonas aeruginosa it was 11.4 mm; in the assay on Escherichia coli, 10.7 mm; with Aspergillus fumigatus, 18.2 mm; in assay [1], 13.7 mm. Also, the zone of inhibition at 5 µg/mL came out at 19.1 mm in the assay on Geotrichum candidum and 18.2 mm with Candida albicans.

As to `CCOC(=O)c1c(Nc2ccccc2)sc(-c2ccnc(S)n2)c1-c1ccccc1`, the zone of inhibition at 5 µg/mL was 12.3 mm in the assay with Streptococcus pneumoniae; 12.7 mm with Bacillus subtilis; 9.8 mm in the assay with Pseudomonas aeruginosa; 11.3 mm in the assay on Escherichia coli; 15.7 mm with Aspergillus fumigatus; 16.6 mm in assay [1]. In addition, the zone of inhibition at 5 µg/mL in the assay with Geotrichum candidum is 12.6 mm; in the assay with Candida albicans, 12.7 mm.

For the origin of these results see ChEMBL document CHEMBL4834450, “Design, synthesis and antimicrobial activity of novel 2-aminothiophene containing cyclic and heterocyclic moieties” (2021).
